Where only a bound is given, the exact number is not on record here.

As a reminder, the half-life is the time in which the quantity being followed falls by half. A high value points to slow loss. As usually defined, the bioavailability is dose-corrected exposure relative to a reference, in per cent. Read a low bioavailability as poor availability. A word on the AUC: it is concentration integrated over time. A lower AUC goes with low exposure. One may read the Ki as a dissociation constant, usually derived from enzyme kinetics or from competition with a known ligand. A low value points to tighter binding.

The nature of data set [1]: Clearance in Sprague-Dawley rat at 0.55 mg/kg, iv or 1.09 mg/kg, po administered as cassette dose by LC-MS/MS analysis. The class given is ADME, organism-based. The settings on record: in vivo.
Data set [2] is described as follows: Permeability of the compound from basolateral to apical side in human Caco2 cells. It counts as ADME, cell-based. The note with it: Caco-2, read-out: permeability. Background: Caco-2 cells form a polarised layer with tight junctions and transporters.
Data set [3] can be described thus: Volume of distribution at steady state in Sprague-Dawley rat at 0.55 mg/kg, iv or 1.09 mg/kg, po administered as cassette dose by LC-MS/MS analysis. The class given is ADME, organism-based. The settings on record: in vivo, read-out: Vdss.
Data set [4] is described as follows: Half life in Sprague-Dawley rat at 0.55 mg/kg, iv or 1.09 mg/kg, po administered as cassette dose by LC-MS/MS analysis. The class given is ADME, organism-based. The settings on record: in vivo.
Data set [5] can be described thus: Oral bioavailability in Sprague-Dawley rat at 1.09 mg/kg administered as cassette dose by LC-MS/MS analysis. The note with it: in vivo. The class given is ADME, organism-based.
Data set [6] can be described thus: AUC in Sprague-Dawley rat at 0.55 mg/kg, iv or 1.09 mg/kg, po by LC-MS/MS analysis. It counts as ADME, organism-based. The note with it: in vivo.
Data set [7] is described as follows: Permeability of the compound from apical to basolateral side in human Caco2 cells. The class given is ADME, cell-based. The note with it: Caco-2, read-out: permeability.
A further data set has as its target Coagulation factor XI (Homo sapiens, UniProt P03951). The data set is described as follows: Inhibition of human Factor XIa using S-2366 as chromogenic substrate after 60 mins by Lineweaver-Burk plot analysis.
The next data set concerns Plasma. In words: Anticoagulant activity in human platelet rich plasma assessed as plasma concentration required for 50% increase in clotting time by aPTT assay. It counts as functional.
A short description of data set [8]: Half life in human liver microsomes. The class given is ADME, microsome. (Liver microsomes are vesicles of endoplasmic reticulum, rich in cytochrome P450 enzymes.)
Data set [9] is described as follows: Protein binding in human plasma. It counts as ADME, cell-free. The note with it: read-out: PPB (converted).
Data set [10] in a line: Clearance in Sprague-Dawley rat at 0.75 mg/kg, iv or 1.5 mg/kg, po administered as cassette dose by LC-MS/MS analysis. The class given is ADME, organism-based. The settings on record: in vivo.
The nature of data set [11]: Volume of distribution at steady state in Sprague-Dawley rat at 0.75 mg/kg, iv or 1.5 mg/kg, po administered as cassette dose by LC-MS/MS analysis. The class given is ADME, organism-based. The note with it: in vivo, read-out: Vdss.
Data set [12] can be described thus: AUC in Sprague-Dawley rat at 0.75 mg/kg, iv or 1.5 mg/kg, po by LC-MS/MS analysis. The class given is ADME, organism-based. The note with it: in vivo.
Data set [13] can be described thus: Half life in Sprague-Dawley rat at 0.75 mg/kg, iv or 1.5 mg/kg, po administered as cassette dose by LC-MS/MS analysis. The class given is ADME, organism-based. The settings on record: in vivo.
Data set [14] in a line: Oral bioavailability in Sprague-Dawley rat at 1.5 mg/kg by LC-MS/MS analysis. The class given is ADME, organism-based. The note with it: in vivo.
Data set [15] can be described thus: Half life in Sprague-Dawley rat at 0.55 mg/kg, iv or 1.11 mg/kg, po administered as cassette dose by LC-MS/MS analysis. It counts as ADME, organism-based. The note with it: in vivo.
Data set [16] is described as follows: Volume of distribution at steady state in Sprague-Dawley rat at 0.55 mg/kg, iv or 1.11 mg/kg, po administered as cassette dose by LC-MS/MS analysis. It counts as ADME, organism-based. The settings on record: in vivo, read-out: Vdss.
Data set [17] is described as follows: AUC in Sprague-Dawley rat at 0.55 mg/kg, iv or 1.11 mg/kg, po by LC-MS/MS analysis. The note with it: in vivo. The class given is ADME, organism-based.
Data set [18] in a line: Oral bioavailability in Sprague-Dawley rat at 1.11 mg/kg by LC-MS/MS analysis. The class given is ADME, organism-based. The note with it: in vivo.
Data set [19] can be described thus: Clearance in Sprague-Dawley rat at 0.55 mg/kg, iv or 1.11 mg/kg, po administered as cassette dose by LC-MS/MS analysis. It counts as ADME, organism-based. The settings on record: in vivo.

Coagulation factor XI, sequence (P03951 19-387 limits assumed): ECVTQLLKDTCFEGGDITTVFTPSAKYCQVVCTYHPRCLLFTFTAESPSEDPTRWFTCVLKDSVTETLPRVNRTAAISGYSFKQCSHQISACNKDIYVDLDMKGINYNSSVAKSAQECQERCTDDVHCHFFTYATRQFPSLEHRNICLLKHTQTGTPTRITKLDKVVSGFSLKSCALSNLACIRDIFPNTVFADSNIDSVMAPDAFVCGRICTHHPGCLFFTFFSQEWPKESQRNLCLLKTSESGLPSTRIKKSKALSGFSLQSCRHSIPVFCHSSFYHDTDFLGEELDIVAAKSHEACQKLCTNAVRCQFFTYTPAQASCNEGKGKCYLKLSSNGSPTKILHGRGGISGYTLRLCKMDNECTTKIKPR
Coagulation factor XI, sequence (P03951 388-625 limits assumed): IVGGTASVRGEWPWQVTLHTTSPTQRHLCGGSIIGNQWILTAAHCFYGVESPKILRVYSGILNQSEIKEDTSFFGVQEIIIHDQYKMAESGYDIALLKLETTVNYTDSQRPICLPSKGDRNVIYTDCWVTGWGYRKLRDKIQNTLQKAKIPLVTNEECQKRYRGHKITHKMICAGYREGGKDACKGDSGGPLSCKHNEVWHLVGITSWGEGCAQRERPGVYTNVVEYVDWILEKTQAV

The molecule `COC(=O)Nc1ccc2c(c1)NC(=O)CC/C=C/C[C@H](NC(=O)/C=C/c1cc(Cl)ccc1-n1cnnn1)c1nc-2c(Cl)[nH]1` gave a clearance in data set [1] of 24 mL/min/kg. The Papp B→A in data set [2] is 5.8 ×10⁻⁶ cm/s. Moreover, the Vd in [3] is 0.4 L/kg. The half-life in [4] was 42 min. Also, the bioavailability in data set [5] is 0.2%. The same molecule showed an AUC in data set [6] of 0.002 µM·h. In addition, the Papp A→B in [7] is under 1.5 ×10⁻⁶ cm/s.
`COC(=O)Nc1ccc2c(c1)NC(=O)C[C@@H](C)/C=C/C[C@H](NC(=O)/C=C/c1cc(Cl)ccc1-n1cnnn1)c1nc-2c[nH]1` showed a Ki on Coagulation factor XI of 0.13 nM. Besides, in the data set with Plasma, the EC1.5 stood at 0.38 µM.
With `COC(=O)Nc1ccc2c(c1)NC(=O)C[C@@H](C)CCC[C@H](NC(=O)c1c(F)cc(C)cc1F)c1nc-2c(Cl)[nH]1`, the half-life in data set [8] was 45 min. In addition, the Papp B→A in [2] came to 25.1 ×10⁻⁶ cm/s. The molecule further registered a Ki on Coagulation factor XI of 44 nM. Also, the Papp A→B in data set [7] is 1.8 ×10⁻⁶ cm/s. The EC1.5 in the data set on Plasma was found to be 12 µM.
`COC(=O)Nc1ccc2c(c1)NC(=O)C[C@@H](C)CCC[C@H](NC(=O)/C=C/c1cc(Cl)ccc1-n1cnnn1)c1nc-2c[nH]1`: in data set [9], the fraction unbound is 0.02. The EC1.5 in the data set on Plasma came to 1.1 µM.
With `COC(=O)Nc1ccc2c(c1)NC(=O)[C@@H](C)CCC[C@H](NC(=O)/C=C/c1cc(Cl)ccc1-n1cnnn1)c1nc-2c[nH]1`, the EC1.5 in the data set with Plasma is 0.63 µM.
`COC(=O)Nc1ccc2c(c1)NC(=O)C[C@H](C)/C=C/C[C@H](NC(=O)/C=C/c1cc(Cl)ccc1-n1cnnn1)c1nc-2c[nH]1` displayed a Ki at Coagulation factor XI of 2 nM. In addition, in the data set on Plasma, the EC1.5 was found to be 0.98 µM.
Regarding `COC(=O)Nc1ccc2c(c1)NC(=O)[C@H](C)CCC[C@H](NC(=O)c1c(F)cc(C)cc1F)c1nc-2c(Cl)[nH]1`, the half-life in data set [8] stood at 8 min. For the same molecule, the Papp B→A in data set [2] was 11.1 ×10⁻⁶ cm/s. Further, the Ki on Coagulation factor XI is 10 nM. Besides, the Papp A→B in data set [7] was under 1.5 ×10⁻⁶ cm/s. For the same molecule, the EC1.5 in the data set on Plasma came to 2 µM.
For the molecule `CC[C@H]1CCC[C@H](NC(=O)/C=C/c2cc(Cl)ccc2-n2cnnn2)c2nc(c[nH]2)-c2ccc(NC(=O)OC)cc2NC1=O`, the EC1.5 in the data set on Plasma is 4 µM.
Turning to `COC(=O)Nc1ccc2c(c1)NC(=O)[C@H](C)CCC[C@H](NC(=O)/C=C/c1cc(Cl)ccc1-n1cnnn1)c1nc-2c(Cl)[nH]1`, on Coagulation factor XI, affinity was put at a Ki of 0.07 nM. The EC1.5 with Plasma was 1.2 µM.
On to `COC(=O)Nc1ccc2c(c1)NC(=O)C[C@@H](C)/C=C/C[C@H](NC(=O)c1c(F)cc(C)cc1F)c1nc-2c(Cl)[nH]1`, for which the figures for the half-life in data set [8] and in data set [13] were 35 min and 54 min, respectively. The same molecule showed a clearance in [10] of 6 mL/min/kg. Besides, the Vd in [11] turned out to be 0.3 L/kg. Also, the AUC in data set [12] is 0.991 µM·h. For the same molecule, the Papp B→A in [2] stood at 18.9 ×10⁻⁶ cm/s. This molecule registered a Ki on Coagulation factor XI of 12 nM. Further, in data set [7], the Papp A→B is under 1.5 ×10⁻⁶ cm/s. Moreover, the EC1.5 in the data set with Plasma worked out at 2.7 µM. The molecule also showed a bioavailability in [14] of 16%.
With `CC[C@@H]1CCC[C@H](NC(=O)/C=C/c2cc(Cl)ccc2-n2cnnn2)c2nc(c[nH]2)-c2ccc(NC(=O)OC)cc2NC1=O`, the EC1.5 with Plasma was found to be 0.52 µM.
Consider `COC(=O)Nc1ccc2c(c1)NC(=O)CCCCC[C@H](NC(=O)/C=C/c1cc(Cl)ccc1-n1cnnn1)c1nc-2c[nH]1`, for which the fraction unbound in [9] is 0.038.
On to `COC(=O)Nc1ccc2c(c1)NC(=O)[C@@H](C(C)C)CCC[C@H](NC(=O)/C=C/c1cc(Cl)ccc1-n1cnnn1)c1nc-2c[nH]1`, for which the affinity on Coagulation factor XI corresponds to a Ki of 21 nM. In addition, the EC1.5 in the data set with Plasma was 64 µM.
With `COC(=O)Nc1ccc2c(c1)NC(=O)C[C@@H](C)CCC[C@H](NC(=O)/C=C/c1cc(Cl)ccc1-n1cnnn1)c1nc-2c(Cl)[nH]1`, the affinity on Coagulation factor XI corresponds to a Ki of 0.06 nM. Besides, in the data set with Plasma, the EC1.5 amounted to 0.57 µM.
For the molecule `COC(=O)Nc1ccc2c(c1)NC(=O)C[C@H](C)CCC[C@H](NC(=O)/C=C/c1cc(Cl)ccc1-n1cnnn1)c1nc-2c[nH]1`, in the data set on Plasma, the EC1.5 was 27 µM.
In the case of `COC(=O)Nc1ccc2c(c1)NC(=O)[C@H](C)CCC[C@H](NC(=O)/C=C/c1cc(Cl)ccc1-n1cnnn1)c1nc-2c[nH]1`, the EC1.5 with Plasma worked out at 0.39 µM.
In the case of `COC(=O)Nc1ccc2c(c1)NC(=O)[C@H](C(C)C)CCC[C@H](NC(=O)/C=C/c1cc(Cl)ccc1-n1cnnn1)c1nc-2c[nH]1`, on Coagulation factor XI, the Ki was 0.14 nM. The EC1.5 in the data set on Plasma was 1.1 µM.
On to `COC(=O)Nc1ccc2c(c1)NC(=O)CC/C=C/C[C@H](NC(=O)c1c(F)cc(C)cc1F)c1nc-2c(Cl)[nH]1`, for which the half-life in data set [8] was 17 min; in data set [15], 54 min. In addition, the Vd in data set [16] amounted to 0.4 L/kg. The molecule also yielded an AUC in data set [17] of 2.08 µM·h. For the same molecule, the Papp B→A in [2] is 20 ×10⁻⁶ cm/s. This molecule yielded a bioavailability in [18] of 41%. Besides, in data set [19], the clearance is 5.6 mL/min/kg. This molecule yielded a Ki at Coagulation factor XI of 16 nM. The Papp A→B in [7] is under 1.5 ×10⁻⁶ cm/s. For the same molecule, the EC1.5 with Plasma came out at 6.6 µM.
Regarding `COC(=O)Nc1ccc2c(c1)NC(=O)CCC(C)CC[C@H](NC(=O)/C=C/c1cc(Cl)ccc1-n1cnnn1)c1nc-2c[nH]1` (single isomer, unassigned; diastereomer A), the Ki on Coagulation factor XI was determined as 5.9 nM. Besides, the EC1.5 in the data set with Plasma came out at 2.5 µM.
For `COC(=O)Nc1ccc2c(c1)NC(=O)C(C)CCCC[C@H](NC(=O)/C=C/c1cc(Cl)ccc1-n1cnnn1)c1nc-2c[nH]1` (single isomer, unassigned; diastereomer A), in that order: 6.5 nM and 5.3 µM.
`COC(=O)Nc1ccc2c(c1)NC(=O)C(C)C/C=C/C[C@H](NC(=O)/C=C/c1cc(Cl)ccc1-n1cnnn1)c1nc-2c[nH]1` (single isomer, unassigned; diastereomer A): the Ki at Coagulation factor XI is 0.33 nM. Also, the EC1.5 with Plasma was 0.67 µM.
On to `COC(=O)Nc1ccc2c(c1)NC(=O)CC(C)CC[C@H](NC(=O)/C=C/c1cc(Cl)ccc1-n1cnnn1)c1nc-2c[nH]1` (single isomer, unassigned; diastereomer A), for which the affinity on Coagulation factor XI, expressed as Ki, was 36 nM. For the same molecule, the EC1.5 with Plasma is 37 µM.
At Coagulation factor XI, `COC(=O)Nc1ccc2c(c1)NC(=O)CCC(C)CC[C@H](NC(=O)/C=C/c1cc(Cl)ccc1-n1cnnn1)c1nc-2c[nH]1` (single isomer, unassigned; diastereomer B) yielded an inhibitory constant (Ki) of 18 nM. The EC1.5 with Plasma was 12 µM.
Molecule `COC(=O)Nc1ccc2c(c1)NC(=O)C(C)CCCC[C@H](NC(=O)/C=C/c1cc(Cl)ccc1-n1cnnn1)c1nc-2c[nH]1` (single isomer, unassigned; diastereomer B) showed a Ki at Coagulation factor XI of 31 nM. Besides, the EC1.5 in the data set on Plasma was 32 µM.
For `COC(=O)Nc1ccc2c(c1)NC(=O)C(C)C/C=C/C[C@H](NC(=O)/C=C/c1cc(Cl)ccc1-n1cnnn1)c1nc-2c[nH]1` (single isomer, unassigned; diastereomer B), in that order: 2.7 nM and 1.2 µM.
The molecule `COC(=O)Nc1ccc2c(c1)NC(=O)CC(C)CC[C@H](NC(=O)/C=C/c1cc(Cl)ccc1-n1cnnn1)c1nc-2c[nH]1` (single isomer, unassigned; diastereomer B) returned a Ki on Coagulation factor XI of 35 nM. Moreover, the EC1.5 with Plasma amounted to 31 µM.

The values above are taken from ChEMBL document CHEMBL4052741, “Macrocyclic inhibitors of Factor XIa: Discovery of alkyl-substituted macrocyclic amide linkers with improved potency” (Bioorg Med Chem Lett, 2017).
